# According to article PMC12247152, “Nature‐Inspired Compounds Targeting Escherichia coli WrbA as Biofilm‐Modulating Agents: Computational Design, Synthesis, and Biological Evaluation” (Archiv Der Pharmazie, 2025):
# Biological target: T1, WrbA (Escherichia coli, UniProt P0A8G6)
# T1 construct: recombinant WrbA protein
# Test: microscale thermophoresis (MST)
# Assay type: binding
# Settings: read-out: K d ± confidence
# T1 sequence (P0A8G6 2-198): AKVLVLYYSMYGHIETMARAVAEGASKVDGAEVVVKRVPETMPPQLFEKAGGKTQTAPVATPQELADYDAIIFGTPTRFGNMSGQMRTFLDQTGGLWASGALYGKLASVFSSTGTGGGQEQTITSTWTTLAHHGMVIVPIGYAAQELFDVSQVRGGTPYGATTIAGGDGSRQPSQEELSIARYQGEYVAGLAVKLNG
row,SMILES,Kd [µM]
1,"CC1(C)CC(=O)c2c(O)cc(OCC(N)=O)cc2O1 [1a, 2‐[(5‐Hydroxy‐2,2‐dimethyl‐4‐oxochroman‐7‐yl)oxy]acetamide]",18.7 ± 6.3
2,"CC1(C)CC(=O)c2c(O)cc(OCC(=O)NCCNCc3ccccc3)cc2O1 [1c, N‐[2‐(Benzylamino)ethyl]‐2‐[(5‐hydroxy‐2,2‐dimethyl‐4‐oxochroman‐7‐yl)oxy]acetamide]",1.4 ± 0.7
3,"CC1(C)CC(=O)c2c(O)cc(OCC(=O)NCc3cccc(Cl)c3)cc2O1 [1d, N‐(3‐Chlorobenzyl)‐2‐[(5‐hydroxy‐2,2‐dimethyl‐4‐oxochroman‐7‐yl)oxy]acetamide]",5 ± 1.8
4,"CC1(C)CC(=O)c2c(O)cc(OCC(=O)NCc3cccc4ccccc34)cc2O1 [1e, 2‐[(5‐Hydroxy‐2,2‐dimethyl‐4‐oxochroman‐7‐yl)oxy]‐N‐(naphthalen‐1‐ylmethyl)acetamide]",2.1 ± 1.3
